Values quoted from earlier work in US20070020177A1, “Radiometal complex compositions” (priority 2003, published 2007).

**Q.** Which “stable at room temperature” value (Fan et al) does the source give for ^99mTc-TRODAT-1 here?
**A.** 24 h

**Q.** And the “radiochemical purity reached by kit” value (minimum of 10 μg tropane conjugate in the kit, autoclave heating 30 minutes, Choi et al)?
**A.** greater than 90%
